In publication PMC12371491 (ACS Bio & Med Chem Au, 2025):

Molecular target: T1, dihydrofolate synthetase (DHFS) (Escherichia coli, UniProt P08192)
T1 sequence (P08192 1-422): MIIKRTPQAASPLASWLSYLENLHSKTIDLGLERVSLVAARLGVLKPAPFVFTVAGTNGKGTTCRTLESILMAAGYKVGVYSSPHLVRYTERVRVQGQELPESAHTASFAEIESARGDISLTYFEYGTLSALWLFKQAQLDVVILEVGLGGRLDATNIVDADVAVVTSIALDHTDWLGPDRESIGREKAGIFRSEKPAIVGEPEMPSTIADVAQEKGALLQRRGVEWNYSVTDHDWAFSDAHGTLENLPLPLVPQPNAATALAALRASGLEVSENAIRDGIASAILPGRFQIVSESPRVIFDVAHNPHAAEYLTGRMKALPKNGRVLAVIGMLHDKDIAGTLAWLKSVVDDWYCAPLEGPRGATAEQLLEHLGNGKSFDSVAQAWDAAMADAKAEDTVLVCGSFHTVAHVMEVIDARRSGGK
Test: PK/LDH-coupled steady-state kinetics and LC-MS of product
Assay type: biochemical

With `Nc1nc2c(c(=O)[nH]1)NC(CNc1ccc(C(=O)N[C@@H](CCC(=O)O)C(=O)O)cc1)CN2` (stereo partly shown) [THF] as the compound, how does the “PK/LDH-coupled steady-state kinetics and LC-MS of product” value read?
The value was “we used fully reduced THF as the substrate and assay for poly glutamylation”.
